Measured values from patent US20090110727A1, “Extended release compositions of proton pump inhibitors” (Eisai R & D management Co., Ltd., priority 2004, published 2009).

assay: Osmotic pressure of saturated solutions by vapor pressure osmometer; format: physicochemical; settings: Hewlett Packard vapor pressure osmometer; ±10%
Description: The osmotic solute may be initially present in excess and it can be in any physical form that is compatible with the proton pump inhibitor, the dosage form, and the osmopolymer. […] In the table, the osmotic pressure π, is in atmospheres, atm. The osmotic pressure is measured in a commercially available osmometer that measures the vapor pressure difference between pure water and the solution to be analyzed and, according to standard thermodynamic principles, the vapor pressure ratio is converted into osmotic pressure difference. […] The osmometer used for the present measurements is identified as Model 320B, Vapor Pressure Osmometer, manufactured by the Hewlett Packard Co., Avondale, Pa.

| Molecule | π value (osmotic pressure) |
| --- | --- |
| [Cl-].[Na+] [Sodium Chloride] | 345 atm |

same assay, conditions: saturated solutions at 37° C., in water

| Molecule | Osmotic Pressure in atm. |
| --- | --- |
| O=C(CO)[C@@H](O)[C@H](O)[C@H](O)CO [Fructose] | 355 atm |
| OC[C@@H](O)[C@@H](O)[C@H](O)[C@H](O)CO [Mannitol] | 38 atm |
| [Cl-].[K+] [Potassium Chloride] | 245 atm |
| O=S(=O)([O-])[O-].[K+].[K+] [Potassium Sulfate] | 39 atm |
| [Cl-].[Na+] [Sodium Chloride] | 356 atm |
| O.O.O.O.O.O.O.O=P([O-])([O-])O.[Na+].[Na+] [Sodium Phosphate Dibasic 7 H2O] | 31 atm |
| O.O.O.O.O.O.O.O.O.O.O.O.O=P([O-])([O-])O.[Na+].[Na+] [Sodium Phosphate Dibasic 12 H2O] | 31 atm |
| O=P([O-])([O-])O.[Na+].[Na+] [Sodium Phosphate Dibasic Anhydrous] | 29 atm |
| O.O.O.O.O.O.O.O.O.O.O.O.O=P([O-])([O-])[O-].[Na+].[Na+].[Na+] [Sodium Phosphate Tribasic 12 H2O] | 36 atm |
| Sodium Phosphate Monobasic H2O | 28 atm |
